pIC50: −log10 of the molar value.

For the experiment, the target named is T1, wild-type human ALK (cytoplasmic domain, amino acids 1058-1620, N-terminal GST fusion) (Homo sapiens, UniProt Q9UM73).
T1 construct: The cytoplasmic domain (amino acids 1058-1620) of wild-type human ALK; GST (N); made in house; host or cells: SF9 insect cells
T1 sequence (Q9UM73 1058-1620): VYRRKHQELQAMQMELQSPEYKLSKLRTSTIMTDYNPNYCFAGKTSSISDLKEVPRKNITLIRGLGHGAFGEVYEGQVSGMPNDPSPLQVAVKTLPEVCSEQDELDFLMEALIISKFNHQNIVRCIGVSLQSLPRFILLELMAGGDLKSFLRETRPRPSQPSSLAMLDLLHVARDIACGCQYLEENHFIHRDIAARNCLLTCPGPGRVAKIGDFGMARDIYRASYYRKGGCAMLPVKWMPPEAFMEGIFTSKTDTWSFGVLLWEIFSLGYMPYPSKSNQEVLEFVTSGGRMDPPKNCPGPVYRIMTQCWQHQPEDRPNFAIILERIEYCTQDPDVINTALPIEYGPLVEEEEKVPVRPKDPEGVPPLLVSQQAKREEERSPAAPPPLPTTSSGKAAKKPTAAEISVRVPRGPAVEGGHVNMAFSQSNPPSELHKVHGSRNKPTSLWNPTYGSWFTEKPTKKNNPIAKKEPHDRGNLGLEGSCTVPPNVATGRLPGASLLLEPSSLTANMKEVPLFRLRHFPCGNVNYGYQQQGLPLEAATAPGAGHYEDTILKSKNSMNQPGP
Kind of experiment: ALK Inhibition in Enzyme Assay (Lance TR-FRET kinase assay). The format is biochemical. In short, it runs like this: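 Purified enzyme phosphorylated a biotinylated peptide substrate for 90 minutes at room temperature. Reactions were stopped with 20 mM EDTA in 50 mM Tris (pH 7.5), 100 mM NaCl, 0.05% BSA, 0.1% Tween-20. Phosphopeptide was detected by TR-FRET with SA-APC and Eu-W1024 anti-phosphotyrosine antibody PT66, excitation 320 nm.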
Background: TR-FRET usually uses a lanthanide donor and a delayed reading to cut background.
One may read the pIC50 as the negative decadic logarithm of the IC50, by convention in mol/L. The molecule `Cc1n[nH]c([C@H]2CC[C@@H](n3/c(=N/C(=O)c4cccc(F)c4)[nH]c4ccc(CN5CCC(C(C)(C)O)CC5)cc43)CC2)n1` [Example 74, (E)-3-Fluoro-N-(6-((4-(2-hydroxypropan-2-yl)piperidin-1-yl)methyl)-1-(cis-4-(3-methyl-1H-1,2,4-triazol-5-yl)cyclohexyl)-1H-benzo[d]imidazol-2(3H)-ylidene)benzamide] gave a pIC50 greater than 7.30.
As for `CC(C)(CO)NC(=O)[C@H]1CC[C@@H](n2/c(=N/C(=O)c3ccc(F)cc3)[nH]c3ccc(CN4CCC(C(C)(C)O)CC4)cc32)CC1` [Example 214, (E)-4-Fluoro-N-(1-(cis-4-(1-hydroxy-2-methylpropan-2-ylcarbamoyl)cyclohexyl)-6-((4-(2-hydroxypropan-2-yl)piperidin-1-yl)methyl)-1H-benzo[d]imidazol-2(3H)-ylidene)benzamide], the pIC50 was greater than 7.30.
To `CC(C)(O)C1CCN(Cc2ccc3[nH]/c(=N\C(=O)c4ccc(F)cc4)n([C@H]4CC[C@@H](C(=O)NC5CNC5)CC4)c3c2)CC1` [Example 243] belongs greater than 7.30.
To `C=CCNS(=O)(=O)c1cc(C(=O)Nc2nc3ccc(CO)cc3n2[C@H]2CC[C@@H](C(=O)OC)CC2)ccc1F` [Example 27, cis-Methyl 4-(2-(3-(N-allylsulfamoyl)-4-fluorobenzamido)-6-(hydroxymethyl)-1H-benzo[d]imidazol-1-yl)cyclohexanecarboxylate] belongs 6.00 to 7.00; to `CC(C)NC(=O)[C@H]1CC[C@@H](n2/c(=N/C(=O)c3ccc(F)cc3)[nH]c3cnc(OCCO)cc32)CC1` [Example 127, (E)-4-Fluoro-N-(6-(2-hydroxyethoxy)-1-(cis-4-(isopropylcarbamoyl)cyclohexyl)-1H-imidazo[4,5-c]pyridin-2(3H)-ylidene)benzamide], greater than 7.30.
`NC(=O)[C@H]1CC[C@@H](n2/c(=N/C(=O)c3ccc(F)cc3)[nH]c3cnc(OCCN4CCCCC4)cc32)CC1` [Example 135, (E)-N-(1-(cis-4-Carbamoylcyclohexyl)-6-(2-(piperidin-1-yl)ethoxy)-1H-imidazo[4,5-c]pyridin-2(3H)-ylidene)-4-fluorobenzamide]: the negative logarithm of the IC50 (pIC50) is greater than 7.30.
The molecule `CC(C)NC(=O)[C@H]1CC[C@@H](n2/c(=N/C(=O)c3ccc(F)cc3)[nH]c3ccc(CN4CCn5c(nnc5C(C)(C)O)C4)cc32)CC1` [Example 230, (E)-4-Fluoro-N-(6-((3-(2-hydroxypropan-2-yl)-5,6-dihydro-[1,2,4]-triazolo[4,3-a]pyrazin-7(8H)-yl)methyl)-1-(cis-4-(isopropylcarbamoyl)cyclohexyl)-1H-benzo[d]imidazol-2(3H)-ylidene)benzamide] gave a pIC50 greater than 7.30.
For the molecule `COCCOCc1ccc2[nH]/c(=N\C(=O)c3ccc(F)cc3)n([C@H]3CC[C@@H](C(=O)NC(C)C)CC3)c2c1` [Example 198, (E)-4-Fluoro-N-(1-(cis-4-(isopropylcarbamoyl)cyclohexyl)-6-((2-methoxyethoxy)methyl)-1H-benzo[d]imidazol-2(3H)-ylidene)benzamide], the pIC50 was greater than 7.30.
Take `CC(C)NC(=O)[C@H]1CC[C@@H](n2/c(=N/C(=O)c3ccc(F)cc3)[nH]c3ccc(-n4cncn4)cc32)CC1` [Example 221, (E)-4-Fluoro-N-(1-(cis-4-(isopropylcarbamoyl)cyclohexyl)-6-(1H-1,2,4-triazol-1-yl)-1H-benzo[d]imidazol-2(3H)-ylidene)benzamide]: the pIC50 was greater than 7.30.
`CC(C)NC(=O)[C@H]1CC[C@@H](n2/c(=N/C(=O)N3CCOCC3)[nH]c3cnc(OCCN4CCCCC4)cc32)CC1` [Example 133, (E)-N-(1-(cis-4-(Isopropylcarbamoyl)cyclohexyl)-6-(2-(piperidin-1-yl)ethoxy)-1H-imidazo[4,5-c]pyridin-2(3H)-ylidene)morpholine-4-carboxamide] had a pIC50 of 6.00 to 7.00.
